Reference: patent US10253069B2, “Compositions and methods for regulating arterial tone” (University of Virginia Patent Foundation, priority 2012, dated 2019)

Legend:
[1] = system: thoracodorsal arteries from eNOS−/− animals; assay: Pressure myography on thoracodorsal arteries from eNOS−/− mice; set-up: species or system mouse
[2] = system: human coronary endothelial cells; assay: Nitrite measurements from media of coronary endothelial cells; assay type: cell-based
Protocol: Primary coronary endothelial cells (Lonza) were cultured on plastic 6-well dishes as previously described^9. For studies involving basal NO release, endothelial cells were incubated with 5 μmol/L of Scr X or Hb α X for 20 minutes followed by medium collection and nitrite measurements as described below. For bradykinin studies, coronary endothelial cells were grown to confluence followed by serum starvation overnight in a cocktail of Lonza EGM-2 medium supplemented with EGM-2 bullet kit and Opti MEM reduced growth medium using a ratio of 1:9 respectively. The next day, endothelial cells were incubated with Scr X or Hb α X peptide for 20 minutes followed by the addition of 10 μM bradykinin (Sigma) for 5 minutes followed by medium collection for nitrite measurements as described below.
Quantitation of nitrite in culture medium was measured by chemiluminescence using a Sievers nitric oxide analyzer according to manufacturer's instructions. Quantitation of peaks was analyzed using Origin Pro 6.0 as previously described^9.

[3] = system: thoracodorsal arteries; assay: cGMP assay on thoracodorsal arteries; set-up: species or system mouse
Protocol: Isolated thoracodorsal arteries were cannulated and pressurized to 80 mmHg as previously described^13. Arteries were perfused with 5 μM Scr X or Hb α X with addition of 0.5 mmol/L of the phosphodiesterase inhibitor 3-isobutyl-1-methylxanthine (IBMX) (all conditions) or 100 μmol/L the nitric oxide synthase inhibitor L-NG-Nitroarginine Methyl Ester (L-NAME) for 20 minutes. Arteries were then stimulated with 50 μM phenylephrine for 10 minutes and immediately immersed in lysis buffer provided in the cGMP XP assay Kit (Cell Signaling) according to manufactures instructions. Briefly, a competition enzyme-linked immunoassay was used to generate a standard curve of known cGMP concentrations followed by calculating cGMP concentrations of experimental samples. The cGMP concentration in experimental samples was normalized to total protein concentration.

[4] = target: T1, eNOS and Hb α complex (Mus musculus, UniProt P70313); assay: Proximity ligation assay for eNOS and Hb α on thoracodorsal arteries
T1 construct: from tissue; host or cells: isolated mouse thoracodorsal arteries
T1 sequence (P70313 2-1202 limits assumed): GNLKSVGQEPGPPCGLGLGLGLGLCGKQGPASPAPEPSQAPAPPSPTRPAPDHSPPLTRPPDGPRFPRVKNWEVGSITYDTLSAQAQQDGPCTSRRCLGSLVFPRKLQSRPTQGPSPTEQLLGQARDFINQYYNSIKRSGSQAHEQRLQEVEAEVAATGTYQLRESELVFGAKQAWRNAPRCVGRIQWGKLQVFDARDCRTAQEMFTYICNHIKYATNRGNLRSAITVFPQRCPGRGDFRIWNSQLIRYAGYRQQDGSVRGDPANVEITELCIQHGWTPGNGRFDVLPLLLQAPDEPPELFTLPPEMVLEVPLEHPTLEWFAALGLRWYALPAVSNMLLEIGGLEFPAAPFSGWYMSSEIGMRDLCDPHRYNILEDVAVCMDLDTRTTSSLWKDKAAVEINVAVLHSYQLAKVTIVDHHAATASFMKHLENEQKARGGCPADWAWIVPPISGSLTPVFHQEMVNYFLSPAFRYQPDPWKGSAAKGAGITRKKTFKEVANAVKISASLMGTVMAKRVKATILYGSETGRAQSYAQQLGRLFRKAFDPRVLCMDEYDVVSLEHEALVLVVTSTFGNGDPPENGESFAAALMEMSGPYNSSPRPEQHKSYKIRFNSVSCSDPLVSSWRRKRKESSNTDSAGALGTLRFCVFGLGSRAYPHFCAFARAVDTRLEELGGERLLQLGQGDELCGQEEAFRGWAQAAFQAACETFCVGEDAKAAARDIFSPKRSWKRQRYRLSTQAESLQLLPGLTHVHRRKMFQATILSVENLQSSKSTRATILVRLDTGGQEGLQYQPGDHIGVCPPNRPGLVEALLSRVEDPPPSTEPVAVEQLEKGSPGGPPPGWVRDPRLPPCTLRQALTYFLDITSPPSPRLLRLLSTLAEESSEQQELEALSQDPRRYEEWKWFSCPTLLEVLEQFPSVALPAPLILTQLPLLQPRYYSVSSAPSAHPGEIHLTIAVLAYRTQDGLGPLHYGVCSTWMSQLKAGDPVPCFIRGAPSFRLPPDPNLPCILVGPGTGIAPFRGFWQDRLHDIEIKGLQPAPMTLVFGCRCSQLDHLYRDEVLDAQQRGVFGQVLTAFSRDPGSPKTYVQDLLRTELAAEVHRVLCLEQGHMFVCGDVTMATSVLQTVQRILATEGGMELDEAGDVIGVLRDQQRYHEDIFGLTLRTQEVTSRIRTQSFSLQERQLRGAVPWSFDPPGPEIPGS
Protocol: Isolated thoracodorsal arteries were perfused with Scr X or Hb α X peptide (5 μmol/L) for 20 minutes and immediately immersed in 4% paraformaldehyde, paraffin-embedded and sectioned as previously described^12. Next, sections were de-paraffinized, blocked and incubated with 1:500 mouse anti-eNOS (BD Biosciences), 1:500 rabbit anti-Hb α and 1:500 mouse anti-caveolin-1 (BD Biosciences) primary antibodies overnight at 4° C. The following day, secondary antibodies conjugated with oligonucleotide PLA probes were added, ligated and rolling circle amplification with fluorescent oligonucleotides identified positive interaction sites as previously described^9. All images were visualized and captured using an Olympus Fluoview 1000 confocal microscope. For proximity ligation assay quantitation, positive interactions indicated by red punctates on the endothelium were counted and divided by the circumference of the lumen using Metamorph software.

Substance: Peptide LSFPTTKTYF (SEQ ID NO:2), first ten amino acids of the Hb α sequence, with HIV-tat tag YGRKKRRQRRR at the N-terminus [Hb α X]
- Magnitude of phenylephrine induced constriction [1]: no alteration
- Nitrite accumulation following stimulation with bradykinin ([2]; 10 μM bradykinin, 5 minutes, Scr X vs Hb α X): no change
- Accumulation of nitrite in the culture medium, basal ([2]; unstimulated cells): no differences
- cGMP accumulation with L-NAME ([3]; phenylephrine stimulation plus L-NAME): reversed
- cGMP accumulation ([3]; phenylephrine stimulation, compared to Scr X peptide): significant increase
- Inhibition of association ([4]; ex vivo studies): > 90%
- Colocalization / protein-protein interaction between eNOS and Hb α ([4]; thoracodorsal arteries, 5 μmol/L peptide, 20 minutes): significant loss of protein-protein interaction
